Consider three compounds from patent US20110014285A1, “N-ACETYL CYSTEINE COMPOSITIONS AND METHODS TO IMPROVE THE THERAPEUTIC EFFICACY OF ACETAMINOPHEN” (priority 2009, published 2011).

The conditions of data set [1]: effects counter to those reported for NAC; Samstrand et al (1999); cited from earlier work.
The conditions of data set [2]: NAC thiol/disulfide pair; Noszal et al. (2000); cited from earlier work.
The next data set deals with fever. Nature of the data set: Control of fever refractory to acetaminophen in a pediatric patient. Format: in vivo, human. The following applies: standard maximum daily dose of acetaminophen. From the text:
A pediatric patient receives a standard maximum daily dose of acetaminophen to control a fever, but the acetaminophen is ineffective. The patient receives the same standard maximum daily dose of acetaminophen in the form of an acetaminophen-N-acetylcysteine composition.

For data set [3] the following is noted: in vivo; cited from earlier work.
In another data set the test system is humans. Conditions: cited from earlier work.
A further data set deals with dogs. Conditions: cited from earlier work.
In another data set the test system is felines. Conditions: felines (cat family); cited from earlier work.

For the compound `CC(=O)N[C@@H](CSSC[C@H](NC(C)=O)C(=O)O)C(=O)O` [oxidized form of NAC], the “bioactive dose relative to NAC” value in data set [1] is on record as 10-100 fold less than NAC.

In the case of `CC(=O)N[C@@H](CS)C(=O)O` [NAC, N-acetylcysteine], the half-cell potential result in data set [2] was “about +63 mV”.

Consider `CC(=O)Nc1ccc(O)cc1` [acetaminophen, N-acetyl-para-aminophenol], for which the control of fever entry in the data set on fever is “ineffective”. For the same compound, the binding to protein entry in data set [3] is “only slightly”. For the same compound, in data set [3], the volume of distribution is 0.9 to 1.0 L/kg. The “dose at which toxicity is documented” value in the data set on humans is > 140 mg/kg; with dogs it was > 40 mg/kg. The “dose at which toxicity and death were demonstrated” value in the data set on felines is 5 to 10 mg/kg.
